# Experimental data: the OPERA property sets (Mansouri et al. 2018)
row,SMILES,logP
1,CCN(CC)C(=O)OCC(C)C,2.82
2,NC(=O)OCCCc1ccccc1,1.96
3,CC(Cc1ccccc1)OC(=O)N(C)C (stereo not drawn),2.6
4,CCN(CC)C(=O)OCCCc1ccccn1,2.36
5,CNC(=O)OCc1ccccc1,1.68
6,CCN(CC)C(=O)OCCc1ccccc1,3.2
7,CCC(CC)COC(=O)N(CC)CC,3.6
8,CN(C)C(=O)OCCc1c[nH]c2ccccc12,2.54
9,NC(=O)OCCCc1cccnc1,0.46
10,CC(C)OC(=O)N(C)C,1.38
11,CN(C)C(=O)OCCc1ccccc1,2.4
12,NC(=O)OCCc1ccccc1,1.5
13,CCN(CC)C(=O)OCc1ccccc1,2.93
14,CCN(CC)C(=O)OCCc1c[nH]c2ccccc12,3.3
15,CN(C)C(=O)OCCCc1cccnc1,1.44
16,CCC(CC)COC(=O)N(C)C,2.87
17,NC(=O)OCCc1c[nH]c2ccccc12,1.69
18,CN(C)C(=O)OCCCc1ccccc1,2.93
